Results: the METLIN SMRT retention time set (Domingo-Almenara et al. 2019)

Assay: gradient 5% acetonitrile 3 min, to 50% in 2 min, to 85% in 15 min, held 3 min, 100 µL/min
Settings: column: Zorbax Extend-C18 2.1 x 50 mm; eluents: water / acetonitrile, 0.1% formic acid
Outline: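 Retention times of pure standards were taken from adduct peaks that were selected by computer and manually inspected. Over 3 months, mixtures of ~100 molecules were run by HPLC–quadrupole time-of-flight mass spectrometry in positive and negative ionization mode. The Zorbax Extend-C18 column (2.1 × 50 mm, 1.8 μm) ran at 100 μL/min in water and acetonitrile, each containing 0.1% formic acid, with 40 μL dead volume and 900 μL dwell volume.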

RP-LC retention time [s] | Structure (SMILES)
646 | COc1ccc(CNC(=O)C2CCN(c3nnc4cccc(C)n34)CC2)cc1
809 | O=C(NC1CC1)C1CCN(c2nc3ccc(-c4ccsc4)nc3s2)CC1
693 | COc1cccc(-c2n[nH]c3c2C(c2ccc(O)cc2)N(C)C3=O)c1 (stereo not drawn)
898 | CC(Cc1ccco1)NC(=O)Cn1cccc1-c1nnc(-c2ccccc2)o1 (stereo not drawn)
997 | CCOc1ccc(S(=O)(=O)N2CCC(C(=O)NCCc3csc(-c4ccccc4)n3)CC2)cc1
928 | O=C(Cn1nc2c(N3CCN(c4ccccc4)CC3)nccn2c1=O)Nc1ccccc1Cl
795 | Cc1ccc(NC(=O)N(C)CC2CCOCC2)cc1C
609 | Cc1cccc(NC(=O)Cn2ncc3c(N4CCN(c5ccccn5)CC4)ncnc32)c1C
798 | Cc1cccc(OCC(=O)N(Cc2ccc(N(C)C)cc2)C2CCS(=O)(=O)C2)c1C (stereo not drawn)
881 | COC(=O)c1cccc(N2C=C(C#N)S(=O)(=O)c3ccc(C)cc32)c1
714 | O=C(NC1CCCCCC1)c1ccc(Cn2cncn2)cc1
968 | CC1CCN(c2cc(-n3cnc(C(=O)NC4CCCC4)c3)ncn2)CC1
979 | CCOc1ccc(NC(=O)c2[nH]c(C)c(S(=O)(=O)N3CCCCC3)c2C)cc1
704 | CCOC(=O)N1CCN(C(=O)Nc2nc(CC(=O)NC3CCCCCC3)cs2)CC1
894 | Cc1noc(C)c1-c1ccc(S(=O)(=O)NCc2ccc3c(c2)OCO3)cc1
937 | O=[N+]([O-])c1ccc(CSc2nnc(-c3cccc(S(=O)(=O)N4CCCC4)c3)o2)cc1
771 | Cc1ccc(NC(=O)Cc2c(C(=O)O)c(C)cn2C)c(C)c1
1120 | COc1ccc(-c2nc(COc3cc(C)c4c(C)nn(C)c4n3)c(C)o2)cc1
1140 | O=c1c2cc(-c3ccc(F)cc3)nn2cnn1Cc1nc(-c2ccccc2Br)no1
617 | Cc1ccc(NC(=O)Cn2c(N)nc(C)cc2=O)c(C)c1
670 | COc1ccc2nc3oc(C(=O)N4CCN(Cc5ccc6c(c5)OCO6)CC4)cc3cc2c1
745 | O=C(c1ccc(F)c(F)c1)N1CCC(n2c(-c3ccoc3)nc3cccnc32)C1 (stereo not drawn)

RP-LC retention time [s] | Structure (SMILES)
578 | COc1cc(C(c2nnnn2C(C)(C)C)N2CCN(c3ccccn3)CC2)cc(OC)c1OC (stereo not drawn)
606 | CSc1ncccc1C(=O)N1CCc2nc(C)ncc2C1
738 | Cc1nc(C2CCOCC2)n(C2CCN(S(=O)(=O)c3cccc(Cl)c3)C2)n1 (stereo not drawn)
617 | Cn1cc(CCN2CCC(C(=O)NCc3ccc(Cl)cc3)CC2)c2cccnc21
1210 | O=C(Nc1ccccc1)c1c(O)c2cccnc2n(-c2ccc(F)cc2)c1=O
982 | COc1ccc(-c2noc(Cn3cnc4c(cnn4-c4ccc(OC)cc4)c3=O)n2)cc1
829 | O=C(N[C@H]1C[C@@H]2C[C@H]1CN2C(=O)Nc1ccc2c(c1)CCC2)c1ccccc1
692 | Cc1ccnc(N2CCCC(C(=O)NCc3ccc4c(c3)OCO4)C2)n1 (stereo not drawn)
610 | Cc1[nH]c(C(=O)N2CCC(CC(=O)NCCCN3CCCC(C)C3)CC2)c(C)c1C (stereo not drawn)
1160 | CCOC(=O)c1ccccc1NC(=O)Cn1cccc(-c2nc(-c3ccc(Cl)cc3)no2)c1=O
623 | O=C(c1cccc(Cl)c1)N1CCN(c2nc(CN3CCOCC3)cs2)CC1
733 | COc1cccc(NS(=O)(=O)c2cc3n(c2)CCN(C(C)C)C3=O)c1
977 | CCn1cc2c3c(cccc31)CN(C(=O)Nc1ccc(OC)c(Cl)c1)CC2
674 | CC(C)Cc1noc(C2(F)CCN(S(=O)(=O)c3ccccc3Cl)CC2)n1
800 | O=C(NC1CCN(c2cc(-c3cccs3)[nH]n2)C1)c1cc(Cl)ccc1F (stereo not drawn)
902 | COCCOC(=O)c1cn(-c2cccc(OC)c2)c(=O)c2ccccc12
1240 | CCCC(=O)Nc1ccc(-c2nc(-c3ccc(Cl)cc3)no2)cc1
914 | COc1ccc(NC(=O)C2CCCN(S(=O)(=O)c3cc(-c4noc(C)n4)cs3)C2)cc1 (stereo not drawn)
1070 | CCCCOC(=O)c1ccc(NC(=O)c2c(O)c3cccc4c3n(c2=O)CC4)cc1
591 | CCOc1cc(Nc2ccc(NC(=O)c3ccco3)cc2)nc(C)n1
720 | CC(=O)N1CCc2cc(N3CC(C(=O)Nc4ccc(C)cc4)CC3=O)ccc21 (stereo not drawn)
1140 | Cc1ccc(Sc2nccnc2N2CCCC(C(=O)NC(C)c3ccccc3)C2)cc1 (stereo not drawn)

RP-LC retention time [s] | Structure (SMILES)
1030 | O=C1CC(c2nc(-c3ccc4c(c3)OCO4)no2)CN1c1ccc(Cl)cc1 (stereo not drawn)
630 | CCOC1CCN(C(=O)NC(C)C)CC1
1240 | CC(C)CCNS(=O)(=O)c1ccccc1-c1nc(-c2ccccc2)no1
644 | Cn1nc(C(=O)N2CCCC(C(=O)NC3CC3)C2)c2c1CCN(C(=O)COc1ccccc1)C2 (stereo not drawn)
732 | Cc1ccc(C)c(NC(=O)Cn2ncc3c(c2=O)N(C2CC2)C(=O)CS3)c1
786 | O=C(Cn1nc2c(N3CCCCCC3)nccn2c1=O)Nc1ccc(Cl)cc1F
674 | CC1CCN(S(=O)(=O)c2ccc(-c3nnc(C(=O)NCCN4CCOCC4)o3)cc2)CC1
833 | Cc1cc(=O)oc2c3c(cc(OCC(=O)N[C@@H](C(=O)O)C(C)C)c12)OC(C)(C)CC3
1320 | CCC1CCCCN1S(=O)(=O)c1cc(-c2nc(C)c(C)s2)sc1C (stereo not drawn)
1130 | Fc1ccc(F)c(Cn2cccc2-c2nc(-c3ccncc3)no2)c1
799 | Cc1c(F)cccc1NC(=O)N1C[C@@H](F)C[C@H]1C(=O)N1CCc2ccccc2C1
577 | O=C(NCCCN1CCCCC1)C1CCN(c2nc3cccnc3s2)CC1
684 | Cc1ccc(-c2nc3nc4c(c(N5CCN(c6ccccn6)CC5)n3n2)CCC4)cc1
1080 | CN(C)N1C(=O)c2c(Cl)c(Cl)c(Cl)c(Cl)c2C1=O
942 | Cc1cccc(NS(=O)(=O)c2cc3c(s2)CCN(C(=O)C2CCC2)C3)c1C
583 | Cc1cc(Nc2ccc(NC(=O)c3sc(C)nc3C)cc2)nc(N2CCCC2)n1
829 | CCC(C)c1ccccc1NC(=O)C1CCN(C(=O)C(C)(C)C)CC1 (stereo not drawn)
908 | CCn1cc2c3c(cccc31)CN(C(=O)Nc1ccc3c(c1)OCCO3)CC2
572 | COc1ccc(NS(=O)(=O)c2ccc(N)cc2)nn1
939 | Cc1noc(C)c1-c1ccc(S(=O)(=O)Nc2ccc(F)c(F)c2)cc1
717 | FC(F)(F)c1cnc(N2CCN(Cc3ccccc3)CC2)c(Cl)c1
829 | Cc1ccc(Nc2c(-c3cccc(O)c3)nc3cnccn23)cc1Cl

RP-LC retention time [s] | Structure (SMILES)
692 | CCCNC(=O)C1CCN(c2ccc(SCC(=O)Nc3ccc(F)c(Cl)c3)nn2)CC1
874 | COCCCNC(=O)Cn1nc(-n2c(C)ccc2C)c2c(C)cc(C)nc21
999 | Cc1ccc(Cl)cc1N1CCN(C(=O)CCc2nnc3c4cc(-c5ccccc5)nn4ccn23)CC1
729 | CCN1CCn2cc(S(=O)(=O)Nc3cc(C)cc(C)c3)cc2C1=O
882 | COc1cccc(NC(=O)C2CCCN(S(=O)(=O)c3c[nH]c(C(=O)N4CCCCCC4)c3)C2)c1 (stereo not drawn)
759 | N#Cc1ccc(Cl)cc1NC(=O)C(=O)NCC1CCCO1 (stereo not drawn)
969 | Cc1cc(C)n(-c2ccc(C(=O)N3CCN(c4ccc(F)c(Cl)c4)CC3)nn2)n1
785 | CCOC(=O)c1c(C)[nH]c(C(=O)N2CCCC(C(=O)NCc3ccccc3OC)C2)c1C (stereo not drawn)
1100 | O=C(Nc1ccc(Cl)cc1)C1CCN(S(=O)(=O)c2ccc(-c3noc(C4CC4)n3)cc2)CC1
581 | Cc1ccc(C(=O)c2cnc3cc4c(cc3c2N2CCN(C)CC2)OCO4)cc1C
635 | O=C(C1CCCO1)N1CCC(OCc2nc(C3CC3)no2)CC1 (stereo not drawn)
786 | COCCNC(=O)c1cc2c(n(-c3ccc(C(F)(F)F)cc3)c1=O)CCCC2=O
907 | CCOC(=O)c1c(S(=O)(=O)N2CCC(C(=O)Nc3cccc(SC)c3)CC2)c(C)n(C)c1C
766 | CCOC(=O)c1c(S(=O)(=O)N2CCC(C(=O)NC3CCCC3)CC2)c(C)n(C)c1C
576 | CCOC(=O)C1CCN(Cc2nc3nc(C)cc(N4CCOCC4)n3n2)CC1
754 | CSc1ccccc1C(=O)N1CCN(C(=O)C2CC2c2ccc3c(c2)OCO3)CC1 (stereo not drawn)
618 | Cn1c(C(=O)NCC2CCCO2)cc2c1CCN(Cc1cccc(F)c1)C2 (stereo not drawn)
861 | CCc1nnc(-c2cc(C)n(CC(=O)Nc3ccc(F)c(Cl)c3)c2C)o1
1190 | CCCN1C(=O)COc2ccc(-c3noc(/C=C/c4ccc(OC)cc4)n3)cc21
731 | CC(C)Cn1c(=O)c2nscc2n(CC(=O)NC2CCCC2)c1=O
774 | CCCn1ccc2sc(C)c(C(=O)O)c2c1=O

Structure (SMILES) | RP-LC retention time [s]
CCC1=C[C@@H]2CN3CCc4c([nH]c5ccccc45)[C@@](C(=O)OC)(C2)[C@@H]13 | 728
